The kinase profiling compilation of Christmann-Franck et al. (2016)
“And” between values parts separate entries of the source, which are not always exact repeats. Equal entries are not always repeated.

Assays:
Assay in all cases: radiometric filter-binding kinase assay, Kinase HotSpot
Settings in all cases: compound 0.5 µM; ATP 10 µM
ADRBK2 (human) = ADRBK2 (human) (UniProt P35626)
AURKB (human) = AURKB (human) (UniProt Q96GD4)
BMX (human) = BMX (human) (UniProt P51813)
CDK9 CCNK (human) = CDK9 CCNK (human) (UniProt O75909+P50750)
CDK9 CCNT1 (human) = CDK9 CCNT1 (human) (UniProt P50750+O60563)
CHEK2 (human) = CHEK2 (human) (UniProt O96017)
CSK (human) = CSK (human) (UniProt P41240)
DAPK1 (human) = DAPK1 (human) (UniProt P53355)
DMPK (human) = DMPK (human) (UniProt Q09013)
EPHA4 (human) = EPHA4 (human) (UniProt P54764)
EPHA7 (human) = EPHA7 (human) (UniProt Q15375)
EPHA8 (human) = EPHA8 (human) (UniProt P29322)
GRK5 (human) = GRK5 (human) (UniProt P34947)
HIPK3 (human) = HIPK3 (human) (UniProt Q9H422)
INSR (human) = INSR (human) (UniProt P06213)
[1] = biological target: JAK1 JH1 catalytic (human) (UniProt P23458)
JAK3 JH1 JH2 (human) = JAK3 JH1 JH2 (human) (UniProt P52333)
LRRK2 (human) = LRRK2 (human) (UniProt Q5S007)
MAP3K5 (human) = MAP3K5 (human) (UniProt Q99683)
MAP4K2 (human) = MAP4K2 (human) (UniProt Q12851)
MAPKAPK2 (human) = MAPKAPK2 (human) (UniProt P49137)
MATK (human) = MATK (human) (UniProt P42679)
MELK (human) = MELK (human) (UniProt Q14680)
NEK6 (human) = NEK6 (human) (UniProt Q9HC98)
NUAK1 (human) = NUAK1 (human) (UniProt O60285)
PAK7 (human) = PAK7 (human) (UniProt Q9P286)
PHKG2 (human) = PHKG2 (human) (UniProt P15735)
PRKCH (human) = PRKCH (human) (UniProt P24723)
PRKG1 (human) = PRKG1 (human) (UniProt Q13976)
SGK3 (human) = SGK3 (human) (UniProt Q96BR1)
STK24 (human) = STK24 (human) (UniProt Q9Y6E0)
STK3 (human) = STK3 (human) (UniProt Q13188)
STK39 (human) = STK39 (human) (UniProt Q9UEW8)
SYK (human) = SYK (human) (UniProt P43405)
TYRO3 (human) = TYRO3 (human) (UniProt Q06418)
YES1 (human) = YES1 (human) (UniProt P07947)
CDK1 CCNA2 (human) = CDK1 CCNA2 (human) (UniProt P06493+P20248)
KIT (human) = KIT (human) (UniProt P10721)
NTRK3 (human) = NTRK3 (human) (UniProt Q16288)
PIM2 (human) = PIM2 (human) (UniProt Q9P1W9)
PRKD1 (human) = PRKD1 (human) (UniProt Q15139)
TNK2 (human) = TNK2 (human) (UniProt Q07912)

NEK6 (human), sequence (Q9HC98 whole entry, looked up): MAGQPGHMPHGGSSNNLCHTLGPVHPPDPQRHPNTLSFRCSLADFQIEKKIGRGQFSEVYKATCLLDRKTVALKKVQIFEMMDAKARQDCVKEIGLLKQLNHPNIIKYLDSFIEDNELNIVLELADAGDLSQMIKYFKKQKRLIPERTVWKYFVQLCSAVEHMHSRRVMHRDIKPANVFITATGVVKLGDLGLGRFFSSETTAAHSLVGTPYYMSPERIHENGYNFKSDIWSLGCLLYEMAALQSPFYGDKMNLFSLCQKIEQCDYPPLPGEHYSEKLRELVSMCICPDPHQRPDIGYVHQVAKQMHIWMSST
EPHA4 (human), sequence (P54764 whole entry, looked up): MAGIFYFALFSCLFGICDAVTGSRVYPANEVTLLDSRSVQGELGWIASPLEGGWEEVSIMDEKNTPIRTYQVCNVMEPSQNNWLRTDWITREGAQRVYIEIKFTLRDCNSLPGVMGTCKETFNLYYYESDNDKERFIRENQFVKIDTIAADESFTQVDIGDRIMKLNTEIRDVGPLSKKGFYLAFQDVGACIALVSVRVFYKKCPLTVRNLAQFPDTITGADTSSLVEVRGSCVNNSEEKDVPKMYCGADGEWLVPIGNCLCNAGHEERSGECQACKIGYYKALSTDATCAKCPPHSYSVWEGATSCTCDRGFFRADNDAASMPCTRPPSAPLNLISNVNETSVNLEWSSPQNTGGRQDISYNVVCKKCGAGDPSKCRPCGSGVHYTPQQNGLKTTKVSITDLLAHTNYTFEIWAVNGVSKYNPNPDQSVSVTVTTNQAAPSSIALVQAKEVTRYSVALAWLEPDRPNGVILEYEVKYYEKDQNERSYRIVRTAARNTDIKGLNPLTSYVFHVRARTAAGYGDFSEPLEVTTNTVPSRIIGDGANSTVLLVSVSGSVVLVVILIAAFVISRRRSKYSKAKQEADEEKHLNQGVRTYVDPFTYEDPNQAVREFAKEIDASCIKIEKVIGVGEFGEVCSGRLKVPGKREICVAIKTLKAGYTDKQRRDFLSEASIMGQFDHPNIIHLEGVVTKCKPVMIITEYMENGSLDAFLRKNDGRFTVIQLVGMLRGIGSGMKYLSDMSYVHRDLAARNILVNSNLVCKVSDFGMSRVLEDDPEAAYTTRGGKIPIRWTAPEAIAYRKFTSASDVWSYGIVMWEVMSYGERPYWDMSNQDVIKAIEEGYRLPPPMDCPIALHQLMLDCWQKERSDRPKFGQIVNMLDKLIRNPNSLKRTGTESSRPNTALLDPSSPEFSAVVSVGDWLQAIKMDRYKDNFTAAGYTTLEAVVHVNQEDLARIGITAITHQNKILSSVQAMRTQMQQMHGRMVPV
CHEK2 (human), sequence (O96017 whole entry, looked up): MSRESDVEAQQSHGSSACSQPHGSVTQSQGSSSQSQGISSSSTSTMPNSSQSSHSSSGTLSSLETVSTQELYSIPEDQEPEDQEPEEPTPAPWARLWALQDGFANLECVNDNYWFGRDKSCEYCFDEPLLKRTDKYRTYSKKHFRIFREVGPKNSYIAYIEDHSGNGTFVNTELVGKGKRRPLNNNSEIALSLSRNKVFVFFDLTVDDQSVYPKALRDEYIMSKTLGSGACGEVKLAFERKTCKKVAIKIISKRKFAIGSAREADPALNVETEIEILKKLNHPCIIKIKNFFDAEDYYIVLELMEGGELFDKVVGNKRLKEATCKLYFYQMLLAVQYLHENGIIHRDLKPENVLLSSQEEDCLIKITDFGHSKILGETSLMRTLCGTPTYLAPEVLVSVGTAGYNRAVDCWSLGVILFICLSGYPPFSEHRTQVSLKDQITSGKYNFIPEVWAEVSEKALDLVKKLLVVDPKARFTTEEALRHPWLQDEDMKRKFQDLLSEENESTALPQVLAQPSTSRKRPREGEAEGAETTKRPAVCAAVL
PAK7 (human), sequence (Q9P286 whole entry, looked up): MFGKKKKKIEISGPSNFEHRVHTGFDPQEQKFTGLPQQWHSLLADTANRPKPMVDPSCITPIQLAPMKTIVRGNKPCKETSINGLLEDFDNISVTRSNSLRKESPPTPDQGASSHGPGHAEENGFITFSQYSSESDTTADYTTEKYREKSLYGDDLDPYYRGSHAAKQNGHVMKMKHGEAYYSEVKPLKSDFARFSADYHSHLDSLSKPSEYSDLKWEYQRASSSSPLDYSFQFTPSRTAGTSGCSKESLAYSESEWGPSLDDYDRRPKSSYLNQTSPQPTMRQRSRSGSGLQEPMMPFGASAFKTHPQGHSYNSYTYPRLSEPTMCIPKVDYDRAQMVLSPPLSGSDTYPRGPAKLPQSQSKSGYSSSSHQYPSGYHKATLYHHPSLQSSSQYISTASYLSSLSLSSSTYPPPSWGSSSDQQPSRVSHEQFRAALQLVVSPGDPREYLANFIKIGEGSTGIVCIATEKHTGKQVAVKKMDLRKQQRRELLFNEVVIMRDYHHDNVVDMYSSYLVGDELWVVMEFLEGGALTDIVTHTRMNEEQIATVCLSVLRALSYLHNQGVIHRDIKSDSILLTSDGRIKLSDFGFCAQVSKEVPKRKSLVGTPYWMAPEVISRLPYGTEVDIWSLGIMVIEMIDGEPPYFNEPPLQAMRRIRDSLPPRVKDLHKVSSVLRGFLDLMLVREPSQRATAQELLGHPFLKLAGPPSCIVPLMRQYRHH
DAPK1 (human), sequence (P53355 whole entry, looked up): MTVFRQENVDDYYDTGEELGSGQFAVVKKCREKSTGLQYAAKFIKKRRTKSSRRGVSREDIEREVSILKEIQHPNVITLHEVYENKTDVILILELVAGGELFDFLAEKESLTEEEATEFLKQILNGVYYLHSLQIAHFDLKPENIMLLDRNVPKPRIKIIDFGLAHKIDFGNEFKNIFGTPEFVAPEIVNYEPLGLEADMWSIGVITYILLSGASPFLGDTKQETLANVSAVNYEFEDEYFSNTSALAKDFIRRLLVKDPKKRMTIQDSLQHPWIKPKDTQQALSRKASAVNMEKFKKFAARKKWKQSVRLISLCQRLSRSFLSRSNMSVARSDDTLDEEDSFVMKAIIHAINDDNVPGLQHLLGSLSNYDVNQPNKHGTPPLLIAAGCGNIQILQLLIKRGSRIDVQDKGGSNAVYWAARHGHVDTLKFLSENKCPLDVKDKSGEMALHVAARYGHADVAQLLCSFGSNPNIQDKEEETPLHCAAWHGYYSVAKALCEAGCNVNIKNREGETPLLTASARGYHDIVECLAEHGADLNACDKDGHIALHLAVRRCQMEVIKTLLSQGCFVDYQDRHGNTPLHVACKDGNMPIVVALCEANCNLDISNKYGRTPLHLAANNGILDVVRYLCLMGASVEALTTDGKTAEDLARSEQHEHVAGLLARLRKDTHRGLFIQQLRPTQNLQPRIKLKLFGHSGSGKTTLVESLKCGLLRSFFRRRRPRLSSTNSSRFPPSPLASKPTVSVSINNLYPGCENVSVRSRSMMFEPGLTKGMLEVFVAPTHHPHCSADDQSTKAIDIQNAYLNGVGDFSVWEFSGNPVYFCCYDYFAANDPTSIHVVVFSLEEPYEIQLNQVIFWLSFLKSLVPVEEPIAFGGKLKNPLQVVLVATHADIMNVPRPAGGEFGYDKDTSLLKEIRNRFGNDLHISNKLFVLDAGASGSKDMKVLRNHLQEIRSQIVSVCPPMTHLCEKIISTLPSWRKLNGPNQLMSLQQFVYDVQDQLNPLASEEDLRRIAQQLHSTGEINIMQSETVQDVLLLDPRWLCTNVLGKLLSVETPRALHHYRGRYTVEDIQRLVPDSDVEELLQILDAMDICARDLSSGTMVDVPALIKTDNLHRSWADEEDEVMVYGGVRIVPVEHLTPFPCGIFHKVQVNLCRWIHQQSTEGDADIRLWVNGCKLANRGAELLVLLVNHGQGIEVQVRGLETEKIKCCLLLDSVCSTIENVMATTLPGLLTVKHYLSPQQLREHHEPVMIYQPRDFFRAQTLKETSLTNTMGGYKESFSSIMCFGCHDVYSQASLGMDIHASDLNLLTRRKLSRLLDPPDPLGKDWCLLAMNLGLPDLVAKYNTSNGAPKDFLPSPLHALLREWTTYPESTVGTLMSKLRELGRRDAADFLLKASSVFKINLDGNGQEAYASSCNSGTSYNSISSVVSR
MAP4K2 (human), sequence (Q12851 whole entry, looked up): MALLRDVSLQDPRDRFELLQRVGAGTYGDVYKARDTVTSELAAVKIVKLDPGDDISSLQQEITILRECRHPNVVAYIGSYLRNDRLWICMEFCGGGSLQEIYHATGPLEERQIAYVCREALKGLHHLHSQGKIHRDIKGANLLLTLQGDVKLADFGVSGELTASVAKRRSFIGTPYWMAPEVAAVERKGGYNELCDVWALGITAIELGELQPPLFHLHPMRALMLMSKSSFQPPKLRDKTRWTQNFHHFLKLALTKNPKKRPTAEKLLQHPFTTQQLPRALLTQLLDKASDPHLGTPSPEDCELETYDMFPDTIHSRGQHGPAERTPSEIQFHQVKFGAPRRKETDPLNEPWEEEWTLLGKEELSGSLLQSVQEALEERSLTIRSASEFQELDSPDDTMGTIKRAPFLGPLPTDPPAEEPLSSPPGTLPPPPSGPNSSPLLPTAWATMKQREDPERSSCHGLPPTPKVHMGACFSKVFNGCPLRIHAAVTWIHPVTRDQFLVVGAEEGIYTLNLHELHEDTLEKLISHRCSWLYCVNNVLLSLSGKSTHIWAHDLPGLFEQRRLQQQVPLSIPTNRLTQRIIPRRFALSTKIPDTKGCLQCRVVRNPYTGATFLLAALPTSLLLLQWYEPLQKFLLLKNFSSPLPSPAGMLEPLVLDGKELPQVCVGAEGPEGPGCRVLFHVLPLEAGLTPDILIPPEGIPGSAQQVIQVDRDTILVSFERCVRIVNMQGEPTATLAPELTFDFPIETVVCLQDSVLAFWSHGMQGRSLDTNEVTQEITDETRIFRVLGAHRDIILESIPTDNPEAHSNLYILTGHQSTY

Row | SMILES | residual activity (ADRBK2 (human)) [%] | residual activity (AURKB (human)) [%] | residual activity (CDK9 CCNK (human)) [%] | residual activity (CDK9 CCNT1 (human)) [%] | residual activity (CHEK2 (human)) [%] | residual activity (CSK (human)) [%] | residual activity (DAPK1 (human)) [%] | residual activity (EPHA4 (human)) [%] | residual activity (EPHA7 (human)) [%] | residual activity (EPHA8 (human)) [%] | residual activity (GRK5 (human)) [%] | residual activity (HIPK3 (human)) [%] | residual activity (INSR (human)) [%] | residual activity (LRRK2 (human)) [%] | residual activity (MAP3K5 (human)) [%] | residual activity (MAP4K2 (human)) [%] | residual activity (MAPKAPK2 (human)) [%] | residual activity (MATK (human)) [%] | residual activity (MELK (human)) [%] | residual activity (NEK6 (human)) [%] | other results
1 | CO[C@@H]1[C@H](N(C)C(=O)c2ccccc2)C[C@H]2O[C@]1(C)n1c3ccccc3c3c4c(c5c6ccccc6n2c5c31)C(=O)NC4 | 97.5 | 2.96 | 71 | 64.2 | 85.1 | 55.1 | 84 | 96.9 | 87.2 | 94.1 | 93.3 | 93.3 | 106 | 8.46 | 101 | 5.17 | 97.8 | 113 | 4.87 | 110 | residual activity (BMX (human)): 32%; residual activity (DMPK (human)): 112%; residual activity [1]: 16.3%; residual activity (JAK3 JH1 JH2 (human)): 0.781%; residual activity (NUAK1 (human)): 2.71%; residual activity (PAK7 (human)): 90.4%; residual activity (PHKG2 (human)): 79.7%; residual activity (PRKCH (human)): 20.4%; residual activity (PRKG1 (human)): 18.8% and 8.37%; residual activity (SGK3 (human)): 93.5%; residual activity (STK24 (human)): 39.1%; residual activity (STK3 (human)): 1.93%; residual activity (STK39 (human)): 96%; residual activity (SYK (human)): 16.8%; residual activity (TYRO3 (human)): 98.8%; residual activity (YES1 (human)): 20.6%
2 | C[C@@H]1CCN(C(=O)CC#N)C[C@@H]1N(C)c1ncnc2[nH]ccc12 | 99.2 | 99.2 | 102 | 100 | 104 | 101 | 109 | 99.1 | 89 | 109 | 107 | 100 | 101 | 51.3 | 97.8 | 102 | 96.6 | 66.9 | 79.4 | 83.2 | residual activity (BMX (human)): 111%; residual activity (CDK1 CCNA2 (human)): 95.9%; residual activity (DMPK (human)): 108%; residual activity (KIT (human)): 98.9%; residual activity (NTRK3 (human)): 90%; residual activity (NUAK1 (human)): 71.2%; residual activity (PAK7 (human)): 93.6%; residual activity (PHKG2 (human)): 98.6%; residual activity (PIM2 (human)): 116%; residual activity (PRKCH (human)): 100%; residual activity (PRKD1 (human)): 97.3%; residual activity (PRKG1 (human)): 82% and 87.8%; residual activity (SGK3 (human)): 98.1%; residual activity (STK24 (human)): 96.1%; residual activity (STK3 (human)): 85.8%; residual activity (STK39 (human)): 95.1%; residual activity (TNK2 (human)): 87.1%; residual activity (TYRO3 (human)): 103%; residual activity (YES1 (human)): 87.1%
3 | COc1cc(Nc2c(C#N)cnc3cc(OCCCN4CCN(C)CC4)c(OC)cc23)c(Cl)cc1Cl | 99.2 | 83.1 | 102 | 87 | 21.7 | 12.3 | 106 | 27 | 77.2 | 10.5 | 109 | 93.5 | 69.8 | 30.1 | 95.7 | 3.16 | 94.7 | 140 | 25.8 | 85.3 | residual activity (CDK1 CCNA2 (human)): 96.9%; residual activity [1]: 99%; residual activity (JAK3 JH1 JH2 (human)): 88.5%; residual activity (KIT (human)): 93.6%; residual activity (NUAK1 (human)): 11.4%; residual activity (PAK7 (human)): 83.6%; residual activity (PHKG2 (human)): 103%; residual activity (PIM2 (human)): 111%; residual activity (PRKCH (human)): 102%; residual activity (PRKD1 (human)): 43.7%; residual activity (PRKG1 (human)): 85.5% and 94.9%; residual activity (SGK3 (human)): 94.4%; residual activity (STK24 (human)): 11%; residual activity (STK3 (human)): 13.9%; residual activity (STK39 (human)): 93.6%; residual activity (SYK (human)): 21.1%; residual activity (TNK2 (human)): 3.54%; residual activity (YES1 (human)): 7.29%
